Experimental data taken from patent publication US6329421A, “Diaryl bicyclic heterocycles as inhibitors of cyclooxygenase-2” (Merck Frosst Canada & Co., priority 1997, dated 2001).

Legend:
cyclooxygenase-2 = molecular target: T1, cyclooxygenase-2 (Homo sapiens, UniProt P35354); assay: Inhibition of cyclooxygenase activity: Cox-2 (PGE2 production in response to arachidonic acid, radioimmunoassay; human osteosarcoma 143 cells); format: cell-based; conditions: read-out: Cox-2% inhib.; for inhibition at 0.1 µM: Conc. 100 nM; for inhibition at 1 µM: Conc. 1000 nM
T1 construct: human osteosarcoma 143 cells (which specifically express cyclooxygenase-2); endogenous in cells; host or cells: human osteosarcoma 143 cells
T1 sequence (P35354 18-604): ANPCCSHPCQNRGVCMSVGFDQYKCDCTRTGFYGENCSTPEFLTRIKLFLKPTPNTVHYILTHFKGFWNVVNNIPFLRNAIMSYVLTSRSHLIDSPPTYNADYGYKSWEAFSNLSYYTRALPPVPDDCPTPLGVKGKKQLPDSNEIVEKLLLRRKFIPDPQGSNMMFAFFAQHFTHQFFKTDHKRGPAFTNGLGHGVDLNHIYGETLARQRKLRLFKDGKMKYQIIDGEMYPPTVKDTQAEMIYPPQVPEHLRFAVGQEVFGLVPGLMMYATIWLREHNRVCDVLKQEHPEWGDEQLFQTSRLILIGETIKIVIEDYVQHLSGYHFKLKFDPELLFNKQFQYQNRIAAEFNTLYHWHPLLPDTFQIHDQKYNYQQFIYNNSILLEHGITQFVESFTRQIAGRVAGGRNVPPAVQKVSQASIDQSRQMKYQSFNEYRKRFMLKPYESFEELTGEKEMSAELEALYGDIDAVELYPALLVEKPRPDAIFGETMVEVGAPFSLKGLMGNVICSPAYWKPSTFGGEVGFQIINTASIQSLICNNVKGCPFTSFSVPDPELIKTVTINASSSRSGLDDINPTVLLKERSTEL
Method: (§1) Compounds were tested as inhibitors of cyclooxygenase activity in whole cell and microsomal cyclooxygenase assays. Both of these assays measured prostaglandin E2 synthesis in response to arachidonic acid, using a radioimmunoassay. Cells used for whole cell assays, and from which microsomes were prepared for microsomal assays, were human osteosarcoma 143 cells (which specifically express cyclooxygenase-2) and human U-937 cells (which specifically express cyclooxygenase-1). In these assays, 100% activity is defined as the difference between prostaglandin E2 synthesis in the absence and presence of arachidonate addition. Compounds of the present invention are inhibitors of cyclooxygenase-2 and are thereby useful in the treatment of cyclooxygenase-2 mediated diseases as enumerated above. The activities of the compounds against cyclooxygenase may be seen in the representative results shown below. In the assay, inhibition is determined by measuring the amount of prostaglandin E2 (PGE2) synthesized in the presence of arachidonic acid, cyclooxygenase-1 or cyclooxygenase-2 and a putative inhibitor. The IC50 values represent the concentration of putative inhibitor required to return PGE2 synthesis to 50% of that obtained as compared to the uninhibited control. For purposes of this specification, a compound is a selective inhibitor of COX-2 over COX-1 if the ratio of IC50 's for COX-1: COX-2 is 100 or greater, preferably 500 or greater. The results for inhibition of PGE2 production may be seen in Table III.

cyclooxygenase-1 = molecular target: T2, cyclooxygenase-1 (Homo sapiens, UniProt P23219); assay: Inhibition of cyclooxygenase activity: Cox-1 (PGE2 production in response to arachidonic acid, radioimmunoassay; human U-937 cells); format: cell-based; conditions: read-out: Cox-1% inhib.; for inhibition at 1 µM: Conc. 1000 nM; for inhibition at 0.1 µM: Conc. 100 nM
T2 construct: human U-937 cells (which specifically express cyclooxygenase-1); endogenous in cells; host or cells: human U-937 cells
Method: as §1

T2 sequence (P23219 24-599): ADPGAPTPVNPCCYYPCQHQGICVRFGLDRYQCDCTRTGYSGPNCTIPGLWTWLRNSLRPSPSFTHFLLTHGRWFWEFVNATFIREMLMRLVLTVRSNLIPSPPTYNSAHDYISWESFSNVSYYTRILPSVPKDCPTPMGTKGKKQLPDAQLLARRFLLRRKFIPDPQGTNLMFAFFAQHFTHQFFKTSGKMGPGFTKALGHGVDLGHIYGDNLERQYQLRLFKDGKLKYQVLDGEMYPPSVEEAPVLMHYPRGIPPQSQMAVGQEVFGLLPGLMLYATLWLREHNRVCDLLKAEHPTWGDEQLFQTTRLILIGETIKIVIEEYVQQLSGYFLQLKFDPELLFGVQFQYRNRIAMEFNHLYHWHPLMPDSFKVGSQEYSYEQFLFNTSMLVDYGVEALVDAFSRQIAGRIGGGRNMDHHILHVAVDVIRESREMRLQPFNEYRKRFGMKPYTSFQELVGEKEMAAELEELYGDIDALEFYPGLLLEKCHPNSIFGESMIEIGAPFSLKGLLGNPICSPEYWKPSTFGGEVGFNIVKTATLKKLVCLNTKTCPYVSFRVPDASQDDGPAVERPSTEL

Structure (SMILES)	inhibition at 0.1 µM (cyclooxygenase-2)	inhibition at 1 µM (cyclooxygenase-2)	inhibition at 1 µM (cyclooxygenase-1)	inhibition at 0.1 µM (cyclooxygenase-1)	other results
NS(=O)(=O)c1ccc(-c2c(-c3ccc(F)c(F)c3)sc3c2COC3=O)cc1 [Example 9, 2-(3,4-Difluorophenyl)-3-(4-(aminosulfonyl)phenyl)4H-thieno-[2,3-c]furan-6-one]	98%	99%	21%	–	–
CS(=O)(=O)c1ccc(C2=C(c3ccccc3)C(=O)c3ccccc32)cc1 [Example 3, 3-(4-(Methylsulfonyl)phenyl)-2-phenylinden-1-one]	80%	–	–	5%	–
CS(=O)(=O)c1ccc(-c2c(-c3ccc(F)cc3)sc3c2COC3=O)cc1 [Example 6, 2-(4-Fluorophenyl)-3-(4-(methylsulfonyl)phenyl)-4H-thieno[2,3-c]furan-6-one]	–	–	–	–	inhibition at 0.015 µM (cyclooxygenase-2; Conc. 15 nM): 50%; inhibition at 0.015 µM (cyclooxygenase-1; Conc. 15 nM): 0%
CS(=O)(=O)c1ccc(-c2[nH]c3ccccc3c2-c2ccc(F)cc2)cc1 [Example 5, 3-(4-Fluorophenyl)-2-(4-(methylsulfonyl)phenyl)indole]	86%	–	–	21%	–
NS(=O)(=O)c1ccc(-c2c(-c3ccc(F)cc3)sc3c2COC3=O)cc1 [Example 8, 2-(4-Fluorophenyl)-3-(4-(aminosulfonyl)phenyl)-4H-thieno[2,3-c]furan-6-one]	42%	–	–	–	inhibition at 10 µM (cyclooxygenase-1; Conc. 10000 nM): 26%
CS(=O)(=O)c1ccc(-c2c(-c3ccc(F)cc3)[nH]c3ccccc23)cc1 [Example 4, 2-(4-Fluorophenyl)-3-(4-(methylsulfonyl)phenyl)indole]	–	–	0%	–	inhibition at 0.01 µM (cyclooxygenase-2; Conc. 10 nM): 58%

Further lines, with some results ahead:

inhibition at 0.1 µM (cyclooxygenase-2)	inhibition at 1 µM (cyclooxygenase-2)	inhibition at 1 µM (cyclooxygenase-1)	inhibition at 0.1 µM (cyclooxygenase-1)	Structure (SMILES)	other results
64%	100%	4%	–	CS(=O)(=O)c1ccc(-c2c(-c3ccc(F)c(F)c3)sc3c2COC3=O)cc1 [Example 7, 2-(3,4-Difluorophenyl)-3-(4-(methylsulfonyl)phenyl)-4H-thieno[2,3-c]-furan-6-one]	–
94%	–	–	0%	CS(=O)(=O)c1ccc(-c2c(-c3ccccc3)oc3ccccc23)cc1 [Example 1, 3-(4-(Methylsulfonyl)phenyl)-2-phenylbenzo[b]furan]	–
–	17%	3%	–	CS(=O)(=O)c1ccc(-c2c(-c3ccccc3)sc3ccccc23)cc1 [Example 2, 3-(4-(Methanesulfonyl)phenyl)-2-phenylbenzo[b]thiophene]	–
65%	91%	28%	–	CS(=O)(=O)c1ccc(-c2c(-c3ccccc3)sc3c2CC(=O)OC3)cc1 [Example 10, 3-(4-(Methylsulfonyl)phenyl)-2-phenyl-4,7-dihydro-thieno[2,3-c]pyran-5-one]	–
